Assay results reported in ChEMBL document CHEMBL1201862, “PubChem BioAssay data set” (2004).
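Interpolation was linear, between the two tested concentrations surrounding the appropriate level; five concentrations were tested over 48 hours in 96-well plates. GI50: concentration for 50% inhibition of growth.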 Activity calls are given as the source filed them. Rule as the data show it: active = GI50 up to about 1.1 µM and inactive = higher.

What was measured:
Experiment in all cases: NCI tumour cell line growth inhibition, 48 h
SNB-19 = system: SNB-19
NCI-H226 = system: NCI-H226
MDA-MB-435 = system: MDA-MB-435
HL-60 = system: HL-60
SW-620 = system: SW-620
HOP-62 = system: HOP-62
UACC-62 = system: UACC-62
HCT-15 = system: HCT-15
CAKI-1 = system: CAKI-1
T47D = system: T47D
RXF 393 = system: RXF 393
HCC 2998 = system: HCC 2998
NCI/ADR-RES = system: NCI/ADR-RES
M14 = system: M14
TK-10 = system: TK-10
IGROV-1 = system: IGROV-1
PC-3 = system: PC-3
UO-31 = system: UO-31
SK-MEL-2 = system: SK-MEL-2

SMILES	GI50 (SNB-19)	GI50 (NCI-H226)	GI50 (MDA-MB-435)	GI50 (HL-60)	GI50 (SW-620)	GI50 (HOP-62)	GI50 (UACC-62)	GI50 (HCT-15)	GI50 (CAKI-1)	GI50 (T47D)	GI50 (RXF 393)	GI50 (HCC 2998)	GI50 (NCI/ADR-RES)	GI50 (M14)	GI50 (TK-10)	GI50 (IGROV-1)	GI50 (PC-3)	GI50 (UO-31)	GI50 (SK-MEL-2)
O=[N+]([O-])C(C(Cl)=C(Cl)Cl)=C(n1nnc2ccccc21)n1nnc2ccccc21	> 86.7 µM (inactive)	> 58.7 µM (inactive)	27.9 µM (inactive)	3.94 µM (inactive)	5.21 µM (inactive)	35.7 µM (inactive)	16.1 µM (inactive)	25.9 µM	30.3 µM (inactive)	40.7 µM (inactive)	20.2 µM (inactive)	49.1 µM (inactive)	32.4 µM (inactive)	30.7 µM (inactive)	46.1 µM (inactive)	36.6 µM (inactive)	37.1 µM (inactive)	25.6 µM (inactive)	42 µM (inactive)
CC(=O)OCC1OC(O[C@H]2C=C[C@@H](C(=O)OCc3ccccc3)n3c(=O)n(-c4ccccc4)c(=O)n32)C(OC(C)=O)C(OC(C)=O)C1OC(C)=O (some centres not stated)	15.7 µM (inactive)	4.55 µM (inactive)	2.07 µM (inactive)	0.262 µM (active)	1.77 µM (inactive)	5.01 µM (inactive)	1.59 µM (inactive)	0.741 µM	1.48 µM (inactive)	2.62 µM (inactive)	2.24 µM (inactive)	1.73 µM (inactive)	3.2 µM (inactive)	1.78 µM (inactive)	2.02 µM (inactive)	2.34 µM (inactive)	3.69 µM (inactive)	1.57 µM (inactive)	4.66 µM (inactive)
COc1ccccc1C1C2=C(COC2=O)Oc2cc3c(cc21)OCO3 (configuration not stated)	3.19 µM (inactive)	5.31 µM (inactive)	0.249 µM (active)	0.44 µM (active)	1.38 µM (inactive)	3.93 µM (inactive)	1.06 µM (active)	1.16 µM	3.55 µM (inactive)	2.32 µM (inactive)	1.69 µM (inactive)	3.23 µM (inactive)	2.31 µM (inactive)	1.4 µM (inactive)	12.4 µM (inactive)	2.53 µM (inactive)	2.12 µM (inactive)	3.56 µM (inactive)	5.15 µM (inactive)
Br[Se]c1ccccn1	12.4 µM (inactive)	17.5 µM (inactive)	17.3 µM (inactive)	17.6 µM (inactive)	23.9 µM (inactive)	2.48 µM (inactive)	17.1 µM (inactive)	19 µM	18.7 µM (inactive)	21.8 µM (inactive)	17.2 µM (inactive)	21.1 µM (inactive)	26.1 µM (inactive)	17.6 µM (inactive)	20.2 µM (inactive)	17.5 µM (inactive)	16.4 µM (inactive)	17.1 µM (inactive)	16.4 µM (inactive)
O=C(Nc1ccccc1C(=O)NCc1ccccc1)/C(=C/c1ccccc1)NC(=O)c1ccccc1	> 100 µM (inactive)	> 100 µM (inactive)	> 100 µM (inactive)	> 100 µM (inactive)	> 100 µM (inactive)	> 100 µM (inactive)	> 100 µM (inactive)	> 100 µM	> 100 µM (inactive)	> 100 µM (inactive)	> 100 µM (inactive)	> 100 µM (inactive)	62.2 µM (inactive)	> 100 µM (inactive)	> 100 µM (inactive)	> 100 µM (inactive)	> 100 µM (inactive)	> 100 µM (inactive)	> 100 µM (inactive)
CCN(CC)c1ccc2cc(C(=O)Nc3ccccc3)c(=N)oc2c1	> 100 µM (inactive)	> 100 µM (inactive)	> 100 µM (inactive)	> 100 µM (inactive)	> 100 µM (inactive)	> 100 µM (inactive)	> 100 µM (inactive)	> 100 µM	> 100 µM (inactive)	> 100 µM (inactive)	> 100 µM (inactive)	> 100 µM (inactive)	> 100 µM (inactive)	> 100 µM (inactive)	> 100 µM (inactive)	> 100 µM (inactive)	> 100 µM (inactive)	> 100 µM (inactive)	> 100 µM (inactive)
COc1cc(/C=C/c2ccccn2)cc(OC)c1OC	> 10 µM (inactive)	> 10 µM (inactive)	> 10 µM (inactive)	> 10 µM (inactive)	> 10 µM (inactive)	> 10 µM (inactive)	> 10 µM (inactive)	> 10 µM	> 10 µM (inactive)	> 10 µM (inactive)	> 10 µM (inactive)	> 10 µM (inactive)	> 10 µM (inactive)	> 10 µM (inactive)	> 10 µM (inactive)	> 10 µM (inactive)	> 10 µM (inactive)	> 10 µM (inactive)	> 10 µM (inactive)
CCOC(=O)[C@H](O)[C@@H](O)C(=O)NCc1ccc(C(=O)c2ccccc2)cc1	> 100 µM (inactive)	> 100 µM (inactive)	> 100 µM (inactive)	> 100 µM (inactive)	> 100 µM (inactive)	> 100 µM (inactive)	> 100 µM (inactive)	> 100 µM	> 100 µM (inactive)	> 100 µM (inactive)	> 100 µM (inactive)	> 100 µM (inactive)	> 100 µM (inactive)	> 100 µM (inactive)	> 100 µM (inactive)	> 100 µM (inactive)	> 100 µM (inactive)	> 100 µM (inactive)	> 100 µM (inactive)
